Data taken from patent US9340600B2 (Indiana University Research and Technology Corporation, priority 2012, dated 2016).
*1 amine or outer side, *2 acyl side, *3 side chain or, on linkers, in order; H or OH if unused. Where a SMILES comes first, the peptide text is derived from it. Side-chain parts run from the residue outwards. [ ]: non-standard residue; d: D form. The star is where a group is joined. γGlu = O=C(O)[C@H](CCC(=O)[*:2])N[*:1]; Palmitoyl = CCCCCCCCCCCCCCCC(=O)*; Aib = CC(C)(N)C(=O)O

What was measured:
Type in all cases: cell-based
[1] = biological target: T1, GLP-1 receptor (Homo sapiens, UniProt P43220); experiment: cAMP induction, firefly luciferase-based reporter assay in HEK293 cells co-transfected with GLP-1 receptor; conditions: EC50 at GLP-1 Receptor, Table 2, analogs of SEQ ID NO: 18 varying at positions 16-21
T1 construct: expressed in transfected cells; host or cells: HEK293
T1 sequence (P43220 24-463): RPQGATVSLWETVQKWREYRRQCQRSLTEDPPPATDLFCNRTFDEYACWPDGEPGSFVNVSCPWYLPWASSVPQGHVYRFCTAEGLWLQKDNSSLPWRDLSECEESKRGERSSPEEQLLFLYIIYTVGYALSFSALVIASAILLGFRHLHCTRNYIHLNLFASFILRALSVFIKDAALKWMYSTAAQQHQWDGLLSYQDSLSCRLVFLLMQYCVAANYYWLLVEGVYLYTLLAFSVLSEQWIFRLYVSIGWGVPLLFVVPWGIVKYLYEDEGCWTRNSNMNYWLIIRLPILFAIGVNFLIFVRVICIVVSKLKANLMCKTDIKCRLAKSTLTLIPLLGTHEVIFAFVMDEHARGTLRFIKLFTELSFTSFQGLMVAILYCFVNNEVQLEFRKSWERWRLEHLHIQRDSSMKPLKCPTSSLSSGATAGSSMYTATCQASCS
Source text: (§1) This example describes an exemplary method of testing the biological activity of the peptides of the present disclosures, which method involves assaying cAMP synthesis.

[2] = biological target: T2, glucagon receptor (Homo sapiens, UniProt P47871); experiment: cAMP induction, firefly luciferase-based reporter assay in HEK293 cells co-transfected with glucagon receptor; conditions: EC50 at Glucagon Receptor, Table 2, analogs of SEQ ID NO: 18 varying at positions 16-21
T2 construct: expressed in transfected cells; host or cells: HEK293
T2 sequence (P47871 26-477): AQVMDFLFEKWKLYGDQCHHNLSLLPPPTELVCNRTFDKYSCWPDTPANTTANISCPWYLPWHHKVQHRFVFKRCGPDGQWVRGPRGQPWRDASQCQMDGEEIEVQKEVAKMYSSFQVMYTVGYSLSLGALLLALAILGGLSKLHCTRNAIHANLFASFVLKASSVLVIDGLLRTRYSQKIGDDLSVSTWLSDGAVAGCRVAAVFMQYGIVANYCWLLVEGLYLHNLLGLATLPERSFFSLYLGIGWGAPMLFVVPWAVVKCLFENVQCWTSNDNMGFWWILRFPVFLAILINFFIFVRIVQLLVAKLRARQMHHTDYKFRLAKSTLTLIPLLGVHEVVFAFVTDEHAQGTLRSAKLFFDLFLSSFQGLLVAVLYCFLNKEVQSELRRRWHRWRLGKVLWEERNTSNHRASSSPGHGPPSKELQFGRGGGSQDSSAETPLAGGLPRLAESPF
Source text: as §1

[3] = biological target: T3, GIP receptor (Homo sapiens, UniProt P48546); experiment: cAMP induction, firefly luciferase-based reporter assay in HEK293 cells co-transfected with GIP receptor; conditions: EC50 at GIP Receptor, Table 2, analogs of SEQ ID NO: 18 varying at positions 16-21
T3 construct: expressed in transfected cells; host or cells: HEK293
T3 sequence (P48546 22-466): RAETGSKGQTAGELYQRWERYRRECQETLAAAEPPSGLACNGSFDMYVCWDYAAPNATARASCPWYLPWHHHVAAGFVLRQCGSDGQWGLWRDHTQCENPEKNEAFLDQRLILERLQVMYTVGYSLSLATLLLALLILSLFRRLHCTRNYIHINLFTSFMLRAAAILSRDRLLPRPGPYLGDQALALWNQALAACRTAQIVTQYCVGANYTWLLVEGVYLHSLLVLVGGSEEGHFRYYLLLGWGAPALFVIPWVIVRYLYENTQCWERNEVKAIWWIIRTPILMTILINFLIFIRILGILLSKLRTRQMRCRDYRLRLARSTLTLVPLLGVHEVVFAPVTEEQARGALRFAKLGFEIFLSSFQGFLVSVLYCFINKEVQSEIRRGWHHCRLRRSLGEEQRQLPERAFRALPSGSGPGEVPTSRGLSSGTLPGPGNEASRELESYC
Source text: as §1

SMILES | EC50 [1] [pM] | EC50 [2] [pM] | EC50 [3] [pM]
CCCCCCCCCCCCCCCC(=O)N[C@@H](CCC(=O)NCCCC[C@H](NC(=O)[C@H](CC(=O)O)NC(=O)[C@H](CO)NC(=O)[C@@H](NC(=O)[C@H](Cc1ccccc1)NC(=O)[C@@H](NC(=O)CNC(=O)[C@H](CCC(N)=O)NC(=O)C(C)(C)NC(=O)[C@@H](N)Cc1c[nH]cn1)[C@@H](C)O)[C@@H](C)O)C(=O)N[C@@H](CO)C(=O)N[C@@H](CCCCN)C(=O)N[C@@H](Cc1ccc(O)cc1)C(=O)N[C@@H](CC(C)C)C(=O)N[C@@H](CC(=O)O)C(=O)N[C@@H](CCC(=O)O)C(=O)N[C@@H](CCCNC(=N)N)C(=O)N[C@@H](C)C(=O)NC(C)(C)C(=O)N[C@@H](C)C(=O)N[C@@H](CCC(=O)O)C(=O)N[C@@H](Cc1ccccc1)C(=O)N[C@H](C(=O)N[C@@H](CCC(N)=O)C(=O)N[C@@H](Cc1c[nH]c2ccccc12)C(=O)N[C@@H](CC(C)C)C(=O)N[C@@H](CC(C)C)C(=O)N[C@@H](CC(=O)O)C(=O)NCC(=O)NCC(=O)N1CCC[C@H]1C(=O)N[C@@H](CO)C(=O)N[C@@H](CO)C(=O)NCC(=O)N[C@@H](C)C(=O)N1CCC[C@H]1C(=O)N1CCC[C@H]1C(=O)N1CCC[C@H]1C(=O)N[C@@H](CO)C(N)=O)C(C)C)C(=O)O [compound 23] (H-H[Aib]QGTFTSDK([γGlu-Palmitoyl])SKYLDERA[Aib]AEFVQWLLDGGPSSGAPPPS-NH2) | 7 | 261 | 13
CCCCCCCCCCCCCCCC(=O)N[C@@H](CCC(=O)NCCCC[C@H](NC(=O)[C@H](CC(=O)O)NC(=O)[C@H](CO)NC(=O)[C@@H](NC(=O)[C@H](Cc1ccccc1)NC(=O)[C@@H](NC(=O)CNC(=O)[C@H](CCC(N)=O)NC(=O)C(C)(C)NC(=O)[C@@H](N)Cc1c[nH]cn1)[C@@H](C)O)[C@@H](C)O)C(=O)N[C@@H](CO)C(=O)N[C@@H](CCCCN)C(=O)N[C@@H](Cc1ccc(O)cc1)C(=O)N[C@@H](CC(C)C)C(=O)N[C@@H](CC(=O)O)C(=O)NC(C)(C)C(=O)N[C@@H](CCCNC(=N)N)C(=O)N[C@@H](C)C(=O)N[C@@H](C)C(=O)NC(C)(C)C(=O)N[C@@H](CCC(=O)O)C(=O)N[C@@H](Cc1ccccc1)C(=O)N[C@H](C(=O)N[C@@H](CCC(N)=O)C(=O)N[C@@H](Cc1c[nH]c2ccccc12)C(=O)N[C@@H](CC(C)C)C(=O)N[C@@H](CC(C)C)C(=O)N[C@@H](CC(=O)O)C(=O)NCC(=O)NCC(=O)N1CCC[C@H]1C(=O)N[C@@H](CO)C(=O)N[C@@H](CO)C(=O)NCC(=O)N[C@@H](C)C(=O)N1CCC[C@H]1C(=O)N1CCC[C@H]1C(=O)N1CCC[C@H]1C(=O)N[C@@H](CO)C(N)=O)C(C)C)C(=O)O [compound 24] (H-H[Aib]QGTFTSDK([γGlu-Palmitoyl])SKYLD[Aib]RAA[Aib]EFVQWLLDGGPSSGAPPPS-NH2) | 10 | 2 | 5
CCCCCCCCCCCCCCCC(=O)N[C@@H](CCC(=O)NCCCC[C@H](NC(=O)[C@H](CC(=O)O)NC(=O)[C@H](CO)NC(=O)[C@@H](NC(=O)[C@H](Cc1ccccc1)NC(=O)[C@@H](NC(=O)CNC(=O)[C@H](CCC(N)=O)NC(=O)C(C)(C)NC(=O)[C@@H](N)Cc1c[nH]cn1)[C@@H](C)O)[C@@H](C)O)C(=O)N[C@@H](CO)C(=O)N[C@@H](CCCCN)C(=O)N[C@@H](Cc1ccc(O)cc1)C(=O)N[C@@H](CC(C)C)C(=O)N[C@@H](CC(=O)O)C(=O)N[C@@H](Cc1c[nH]cn1)C(=O)N[C@@H](CCCNC(=N)N)C(=O)N[C@@H](C)C(=O)N[C@@H](C)C(=O)NC(C)(C)C(=O)N[C@@H](CCC(=O)O)C(=O)N[C@@H](Cc1ccccc1)C(=O)N[C@H](C(=O)N[C@@H](CCC(N)=O)C(=O)N[C@@H](Cc1c[nH]c2ccccc12)C(=O)N[C@@H](CC(C)C)C(=O)N[C@@H](CC(C)C)C(=O)N[C@@H](CC(=O)O)C(=O)NCC(=O)NCC(=O)N1CCC[C@H]1C(=O)N[C@@H](CO)C(=O)N[C@@H](CO)C(=O)NCC(=O)N[C@@H](C)C(=O)N1CCC[C@H]1C(=O)N1CCC[C@H]1C(=O)N1CCC[C@H]1C(=O)N[C@@H](CO)C(N)=O)C(C)C)C(=O)O [compound 25] (H-H[Aib]QGTFTSDK([γGlu-Palmitoyl])SKYLDHRAA[Aib]EFVQWLLDGGPSSGAPPPS-NH2; N-terminus assumed) | 4 | 5 | 3
CCCCCCCCCCCCCCCC(=O)N[C@@H](CCC(=O)NCCCC[C@H](NC(=O)[C@H](CC(=O)O)NC(=O)[C@H](CO)NC(=O)[C@@H](NC(=O)[C@H](Cc1ccccc1)NC(=O)[C@@H](NC(=O)CNC(=O)[C@H](CCC(N)=O)NC(=O)C(C)(C)NC(=O)[C@@H](N)Cc1c[nH]cn1)[C@@H](C)O)[C@@H](C)O)C(=O)N[C@@H](CO)C(=O)N[C@@H](CCCCN)C(=O)N[C@@H](Cc1ccc(O)cc1)C(=O)N[C@@H](CC(C)C)C(=O)N[C@@H](CC(=O)O)C(=O)N[C@@H](CCC(=O)O)C(=O)N[C@@H](CCC(N)=O)C(=O)N[C@@H](C)C(=O)N[C@@H](C)C(=O)NC(C)(C)C(=O)N[C@@H](CCC(=O)O)C(=O)N[C@@H](Cc1ccccc1)C(=O)N[C@H](C(=O)N[C@@H](CCC(N)=O)C(=O)N[C@@H](Cc1c[nH]c2ccccc12)C(=O)N[C@@H](CC(C)C)C(=O)N[C@@H](CC(C)C)C(=O)N[C@@H](CC(=O)O)C(=O)NCC(=O)NCC(=O)N1CCC[C@H]1C(=O)N[C@@H](CO)C(=O)N[C@@H](CO)C(=O)NCC(=O)N[C@@H](C)C(=O)N1CCC[C@H]1C(=O)N1CCC[C@H]1C(=O)N1CCC[C@H]1C(=O)N[C@@H](CO)C(N)=O)C(C)C)C(=O)O [compound 26] (H-H[Aib]QGTFTSDK([γGlu-Palmitoyl])SKYLDEQAA[Aib]EFVQWLLDGGPSSGAPPPS-NH2) | 1 | 4 | 1
CCCCCCCCCCCCCCCC(=O)N[C@@H](CCC(=O)NCCCC[C@H](NC(=O)[C@H](CC(=O)O)NC(=O)[C@H](CO)NC(=O)[C@@H](NC(=O)[C@H](Cc1ccccc1)NC(=O)[C@@H](NC(=O)CNC(=O)[C@H](CCC(N)=O)NC(=O)C(C)(C)NC(=O)[C@@H](N)Cc1c[nH]cn1)[C@@H](C)O)[C@@H](C)O)C(=O)N[C@@H](CO)C(=O)N[C@@H](CCCCN)C(=O)N[C@@H](Cc1ccc(O)cc1)C(=O)N[C@@H](CC(C)C)C(=O)N[C@@H](CC(=O)O)C(=O)N[C@@H](CCC(=O)O)C(=O)N[C@@H](CCCNC(=N)N)C(=O)N[C@@H](C)C(=O)NC(C)(C)C(=O)N[C@@H](CCCCN)C(=O)N[C@@H](CCC(=O)O)C(=O)N[C@@H](Cc1ccccc1)C(=O)N[C@H](C(=O)N[C@@H](CCC(N)=O)C(=O)N[C@@H](Cc1c[nH]c2ccccc12)C(=O)N[C@@H](CC(C)C)C(=O)N[C@@H](CC(C)C)C(=O)N[C@@H](CC(=O)O)C(=O)NCC(=O)NCC(=O)N1CCC[C@H]1C(=O)N[C@@H](CO)C(=O)N[C@@H](CO)C(=O)NCC(=O)N[C@@H](C)C(=O)N1CCC[C@H]1C(=O)N1CCC[C@H]1C(=O)N1CCC[C@H]1C(=O)N[C@@H](CO)C(N)=O)C(C)C)C(=O)O [compound 27] (H-H[Aib]QGTFTSDK([γGlu-Palmitoyl])SKYLDERA[Aib]KEFVQWLLDGGPSSGAPPPS-NH2) | 2 | 165 | 4
CCCCCCCCCCCCCCCC(=O)N[C@@H](CCC(=O)NCCCC[C@H](NC(=O)[C@H](CC(=O)O)NC(=O)[C@H](CO)NC(=O)[C@@H](NC(=O)[C@H](Cc1ccccc1)NC(=O)[C@@H](NC(=O)CNC(=O)[C@H](CCC(N)=O)NC(=O)C(C)(C)NC(=O)[C@@H](N)Cc1c[nH]cn1)[C@@H](C)O)[C@@H](C)O)C(=O)N[C@@H](CO)C(=O)N[C@@H](CCCCN)C(=O)N[C@@H](Cc1ccc(O)cc1)C(=O)N[C@@H](CC(C)C)C(=O)N[C@@H](CC(=O)O)C(=O)N[C@@H](CCCCN)C(=O)N[C@@H](Cc1c[nH]cn1)C(=O)N[C@@H](C)C(=O)N[C@@H](C)C(=O)NC(C)(C)C(=O)N[C@@H](CCC(=O)O)C(=O)N[C@@H](Cc1ccccc1)C(=O)N[C@H](C(=O)N[C@@H](CCC(N)=O)C(=O)N[C@@H](Cc1c[nH]c2ccccc12)C(=O)N[C@@H](CC(C)C)C(=O)N[C@@H](CC(C)C)C(=O)N[C@@H](CC(=O)O)C(=O)NCC(=O)NCC(=O)N1CCC[C@H]1C(=O)N[C@@H](CO)C(=O)N[C@@H](CO)C(=O)NCC(=O)N[C@@H](C)C(=O)N1CCC[C@H]1C(=O)N1CCC[C@H]1C(=O)N1CCC[C@H]1C(=O)N[C@@H](CO)C(N)=O)C(C)C)C(=O)O [compound 28] (H-H[Aib]QGTFTSDK([γGlu-Palmitoyl])SKYLDKHAA[Aib]EFVQWLLDGGPSSGAPPPS-NH2; N-terminus assumed) | 2 | 6 | 1
